Assay results: US20020068367A1, “Linker and method for solid phase combinatorial synthesis” (priority 2000, published 2002)
Each block holds one molecule with its values, some of them ahead of it.

Legend:
fluorescein-streptavidin = biological target: T1, fluorescein-streptavidin (Streptomyces avidinii, UniProt P22629); assay: Standard protein-binding assay: fluorescein-streptavidin binding to linker on streptavidin-coated 96-well plates; conditions: for Fluorescence emission detected (qualitative): linker and fluorescein-labeled protein present
T1 construct: purchased Calbiochem-Novabiochem Corp., La Jolla, Calif; 189734
Source text: (§1) Referring to the drawings, and particularly to FIG. 1, generic reactions illustrating two variations of the screening system of the present invention are shown. FIGS. 1a-1d illustrate the generic System 1 reaction wherein a compound comprised of a tether connecting biotin with a chemical compound containing a nitrophenyl group is applied to a streptavidin coated solid phase. The amount of fluorescein-protein complex (c), where the exemplary protein is fluorescein-anti-DNP antibody, bound to the biotin-tether-nitrophenyl complex is characterized by detecting the magnitude of fluorescence emission in each individual well at the completion of the reaction. Similarly, FIG. 1e-1h illustrates the generic System 2 reaction wherein a tether connects 2 biotin groups together and streptavidin is coated on the solid phase. As in the System 1 reaction, the amount of fluorescein-protein complex (g), where the exemplary protein is fluorescein-streptavidin, bound to the biotin-tether-biotin complex is characterized through the detection of fluorescence emissions in each individual well at the completion of the reaction.
In the quantification of the interaction between fluoresceinated-proteins and linkers is characterized by detecting the magnitude of fluorescence emissions in each individual well at the completion of standard protein-binding assay procedures.
(§2) A standard protein-binding assay comprises a multi-step process in which strepeavidin pre-treated 96-well plates are exposed to a solution containing linker followed by exposure to a solution containing fluorescein-labeled protein. The 96-well plates are coated with a commercially available streptavidin solution (cat #BPS00100; Xenopore Corp., Hawthorne, N.J.) and then pre-incubated with 300 μl PBS buffer for 10 minutes at room temperature. To complete the pre-incubation process, the PBS buffer is discarded and the plates are further washed five times with water. Once the plate is sufficiently washed, add to the wells 100 μl of pre-mixed binding buffer containing the desired linker, the preparation of which is as described above. After addition of the linker solution, the plate is incubated at 37° C. for one hour. Upon completion of incubation, the linker solution is discarded and the plate is washed with five changes of water. For the fifth step of the assay process, 100 μl of a premixed reaction solution containing 1 M Tris, 0.5 M NaCl and the fluorescein-labeled proteins are added to selected wells of the plate with bound linker. The fluorescein conjugated proteins, anti-dinitrophenyl antibody (rabbit IgG fraction, cat #A-6423) (anti-DNP) and streptavidin (cat #189734) are commercially available from Molecular Probes, Inc., Eugene, Oreg. and Calbiochem Inc., San Diego, Calif. Upon addition of the protein solutions, the plate is further incubated at 37° C. for one hour. Following the incubation period, the reacting solution in each well is discarded and the wells are washed with five changes of 1 M Tris or 30 changes of water. After this final washing step, 250 μl of elution buffer containing 0.5 mM NaOH, methanol and 20 mM EDTA is added to each well and the plate is read using a Spectra MAX Gemini fluorescein plate reader (Molecular Devices Corp., Sunnyvale, Calif.).
Using the standard protein-binding assay described above, linkers 1-7 are evaluated for their ability to bind fluorescein-streptavidin or fluorescein-anti-DNP. The detection of fluorescence emission beyond that of the control would indicate that the fluorescein labeled protein has bound to the corresponding linker. Lack of fluorescence emission would indicate that either the linker or the fluorescein-bound proteins are absent, or that an improper linker was used. This may be interpreted as meaning that the protein of interest, in this exemplary example streptavidin or anti-DNP, “recognizes” the particular library compound being used in the experiment. […]

[1] = system: fluorescein-anti-DNP antibody (rabbit IgG fraction); assay: Standard protein-binding assay: fluorescein-anti-DNP binding to linker on streptavidin-coated 96-well plates
Source text: as §1, §2
Using the standard protein-binding assay described above, linkers 1-7 are evaluated for their ability to bind fluorescein-streptavidin or fluorescein-anti-DNP. The detection of fluorescence emission beyond that of the control would indicate that the fluorescein labeled protein has bound to the corresponding linker. Lack of fluorescence emission would indicate that either the linker or the fluorescein-bound proteins are absent, or that an improper linker was used. This may be interpreted as meaning that the protein of interest, in this exemplary example streptavidin or anti-DNP, “recognizes” the particular library compound being used in the experiment. It is this “recognition” that constitutes the use of these plate libraries as “affinity probes”. While preliminary test results are reported for all of the tested linkers, particular emphasis will be on the data derived from testing of linkers 3 and 5. […]

Compound: O=C(CCCCCNC(=O)CCCCC1SCC2NC(=O)NC21)NCCCCCNC(=O)CCCCCNC(=O)CCCCC1SCC2NC(=O)NC21 (stereo not shown) [Linker 2]
Fluorescence emission (fluorescein-streptavidin; Linker 2 62.5 nmol, no streptavidin-fluorescein (control)): 583
Fluorescence emission (fluorescein-streptavidin; Linker 2 62.5 nmol, streptavidin-fluorescein 73.5 pmol): 652
Fluorescence emission detected (qualitative) (fluorescein-streptavidin): Fluorescence emissions were detected

Increase in fluorescence emission ([1]; 100-fold increase in linker 5 concentration): 2.5 fold
Fluorescence emission ([1]; [5] 50.0 nmol, fluorescein-anti-DNP 266 pmol): 197.62
Fluorescence emission ([1]; [5] 100.0 nmol, fluorescein-anti-DNP 266 pmol): 176.22
Fluorescence emission ([1]; [5] 200.0 nmol, fluorescein-anti-DNP 266 pmol): 172.66
Fluorescence emission ([1]; [5] 300.0 nmol, fluorescein-anti-DNP 266 pmol): 180.98
Fluorescence emission ([1]; [5] 400.0 nmol, fluorescein-anti-DNP 266 pmol): 225.98
Fluorescence emission ([1]; [5] 500.0 nmol, fluorescein-anti-DNP 266 pmol): 224.27
Fluorescence emission ([1]; [5] 1000.0 nmol, fluorescein-anti-DNP 266 pmol): 211.7
Fluorescence emission ([1]; [5] 2000.0 nmol, fluorescein-anti-DNP 266 pmol): 351.7
Fluorescence emission ([1]; [5] 3000.0 nmol, fluorescein-anti-DNP 266 pmol): 369.58
Fluorescence emission ([1]; [5] 4000.0 nmol, fluorescein-anti-DNP 266 pmol): 516.83
Fluorescence emission ([1]; [5] 5000.0 nmol, fluorescein-anti-DNP 266 pmol): 543.9
Fluorescence emission ([1]; linker 5 50 nmol, [α-DNP] 0 pmol (linker only)): 76.392
Fluorescence emission ([1]; linker 5 50 nmol, [α-DNP] 2.6 pmol): 101.45
Fluorescence emission ([1]; linker 5 50 nmol, [α-DNP] 5.3 pmol): 109.82
Fluorescence emission ([1]; linker 5 50 nmol, [α-DNP] 10.0 pmol): 129.19
Fluorescence emission ([1]; linker 5 50 nmol, [α-DNP] 16.0 pmol): 137.9
Fluorescence emission ([1]; linker 5 50 nmol, [α-DNP] 21.0 pmol): 160.48
Fluorescence emission ([1]; linker 5 50 nmol, [α-DNP] 27.0 pmol): 204.54
Fluorescence emission ([1]; linker 5 50 nmol, [α-DNP] 53.0 pmol): 306.3
Fluorescence emission ([1]; linker 5 50 nmol, [α-DNP] 106.0 pmol): 473.57
Fluorescence emission ([1]; linker 5 50 nmol, [α-DNP] 159.0 pmol): 615.29
Fluorescence emission ([1]; linker 5 50 nmol, [α-DNP] 212.0 pmol): 599.48
Fluorescence emission ([1]; linker 5 50 nmol, [α-DNP] 266.0 pmol): 561.46
Increase in fluorescence emission ([1]; linker 5, 10-fold increase in fluorescein-anti-DNP concentration (5.3 to 53 pmol)): approximately 3 fold
Compound: O=C(CCCCCNC(=O)CCCCC1SCC2NC(=O)NC21)NCCCCCNC(=O)CCCCCNc1ccc([N+](=O)[O-])cc1[N+](=O)[O-] (stereo not shown) [Linker 5]
Effect on binding capacity of fluorescein-anti-DNP ([1]; generic System 1): significantly enhances the binding capacity

Compound: O=C(CCCCC1SCC2NC(=O)NC21)NCCCOCCOCCOCCCNC(=O)CCCCC1SCC2NC(=O)NC21 (stereo not shown) [Linker 1]
Fluorescence emission detected (qualitative) (fluorescein-streptavidin): No fluorescence emission was detected

Compound: O=C(CCCCC1SCC2NC(=O)NC21)NCCCCCC(=O)NCCCOCCOCCOCCCNC(=O)COCC(=O)NCCCOCCOCCOCCCNC(=O)CCCCC1SCC2NC(=O)NC21 (stereo not shown) [Linker 4]
Fluorescence emission (fluorescein-streptavidin; Linker 4 5 nmol, no streptavidin-fluorescein (control)): 122
Fluorescence emission (fluorescein-streptavidin; Linker 4 5 nmol, streptavidin-fluorescein 100 pmol): 218
Fluorescence emission detected (qualitative) (fluorescein-streptavidin): Fluorescence emissions were detected

Compound: O=C(CCCCCNc1ccc([N+](=O)[O-])cc1[N+](=O)[O-])NCCCOCCOCCOCCCNC(=O)COCC(=O)NCCCOCCOCCOCCCNC(=O)CCCCC1SCC2NC(=O)NC21 (stereo not shown) [Linker 7]
Fluorescence emission (fluorescein-streptavidin; Linker 7 5 nmol, no streptavidin-fluorescein (control)): 112
Fluorescence emission (fluorescein-streptavidin; Linker 7 5 nmol, streptavidin-fluorescein 266 pmol): 208
Fluorescence emission detected (qualitative) (fluorescein-streptavidin): Fluorescence emissions were detected

Compound: NCCCCCNC(=O)CCCC[C@@H]1SC[C@@H]2NC(=O)N[C@@H]21 [Linker B-1596, reference compound]
Fluorescence emission (fluorescein-streptavidin; pre-linker B-1596 50 nmol replacing linker 3, streptavidin-fluorescein 100 pmol): remained at a level similar to reactions where no linker was used
